Measured values reported in patent US5925678A, “Use of N-acyl derivatives of aminoalcohols in the manufacture of a medicament for practicing neuroprotective action in neuropathological states connected with excitotoxicity” (Lifegroup S.P.A., priority 1994, dated 1999).
Counter-ions that a name gives are not always drawn. Like-named read-outs stand apart in the source and are kept apart here. Each block holds one compound with its values, some of them ahead of it.

Assays:
[1] = Solubility in organic solvents; assay type: physicochemical; details: for solubility: organic solvent or mixture
[2] = Solubility in water; assay type: physicochemical
[3] = tested on: Granular cell cultures from mouse cerebellum exposed to Glu; test: Neuroprotective effect against excitotoxicity of Glu in primary neuronal cultures (cell survival, MTT); assay type: cell-based; details: 24 h
Description: In vitro evaluation of the neuroprotective effect against excitotoxicity of Excitatory Amino Acids in primary neuronal cultures of the following compounds was carried out:
The compounds under evaluation, referred to as a, b, c, and d, were solubilized in DMSO and culture medium to obtain concentrations of 100 μM (4% DMSO) and 60 μM (3% DMSO) and added to the culture mediums according to different treatment schedules in order to determine the time-effect relationship vs. the incubation time and the exposure to the neurotoxic stimulus.
Granular cell cultures were obtained from postnatal day 8-9 mouse Balb-6 cerebellum. The cells were suspended in EBM+2 mM L-glutamine, 100 U/ml penicillin, […], 25 mM KCl and 10% fetal calf serum, plated on polylysine substrate, cultured for 8-10 days and then exposed to Glu 500 μM at room temperature for 5 min. The compounds being evaluated were added to the cultures at the same time of exposure, soon after exposure or 15 min after exposure to Glu, and cultured for 60 minutes; cultures were then washed and brought back to the original medium. The number of survived cells was evaluated by […] method (MTT) 24 hours after excitotoxic stimulation.

[4] = n-octanol, read-out: solubility in n-octanol
[5] = dmso, read-out: solubility in DMSO
[6] = A: compound added at the same time of exposure to Glu (500 μM, 5 min), 60 μM, % of control values, average of three tests, Glu alone 44, read-out: survived cells (%), treatment A, 60 μM
[7] = C: compound added 15 min after exposure to Glu (500 μM, 5 min), 60 μM, % of control values, average of three tests, Glu alone 44, read-out: survived cells (%), treatment C, 60 μM
[8] = aqueous buffer, 50 mM phosphate buffer, pH 7.4, NaCl 0.9%, read-out: solubility in water: 50 mM phosphate buffer
[9] = A: compound added at the same time of exposure to Glu (500 μM, 5 min), % of control values, average of three tests, Glu alone 40, read-out: survived cells (%), treatment A, 100 μM
[10] = B: compound added soon after exposure to Glu (500 μM, 5 min), % of control values, average of three tests, Glu alone 40, read-out: survived cells (%), treatment B, 100 μM
[11] = C: compound added 15 min after exposure to Glu (500 μM, 5 min), % of control values, average of three tests, Glu alone 40, read-out: survived cells (%), treatment C, 100 μM

Structure (SMILES): CCCCCCCCCCCCCCCC(=O)NCCOC(C)=O [Example 2, N-(2-Acetoxyethyl)-Palmitoylamide]
solubility [1, 4]: > 5000 µg/mL | solubility in water ([2]; water): poorly soluble

Structure (SMILES): CC(=O)OCCNC(=O)c1ccccc1 [Example 3, N-(2-Acetoxyethyl)-Benzoylamide]
solubility [1, 5]: > 10000 µg/mL | solubility [1, 4]: > 10000 µg/mL | solubility in water ([2]; water): poorly soluble

Structure (SMILES): O=C(CCCCCCCC(=O)NCCO)NCCO [Example 9, N,N'-Bis-(2-Hydroxyethyl)-Nonandiamide]
solubility [1, 5]: > 10000 µg/mL | viability at 100 µM [3, 9]: 68% | viability at 100 µM [3, 10]: 92% | viability at 100 µM [3, 11]: 87%

Structure (SMILES): CCCCCCCCCCCCCCCC(=O)NCCOC(=O)CCC(=O)O [Example 7, N-(2-Hydroxyethyl)-Palmitoylamide Succinate Acid]
solubility [1, 5]: > 5000 µg/mL | solubility in water ([2]; water): poorly soluble | solubility ([2]; water, as potassium salt, read-out: solubility in water as potassium salt): > 1000 µg/mL

Structure (SMILES): CCCCCCCCCCCCCCCC(=O)NCCO [Example 1, N-(2-Hydroxyethyl)-Palmitoylamide]
solubility in organic solvents [1]: hot methanol, CH3 Cl, DMSO | viability at 60 µM [3, 6]: 86% | viability at 100 µM [3, 9]: 67% | viability at 100 µM [3, 10]: 84% | viability at 60 µM [3, 7]: 101% | viability at 100 µM [3, 11]: 76% | solubility in water ([2]; water): insoluble

Structure (SMILES): N[C@@H](CCC(=O)O)C(=O)O [Glu, glutamic acid, reference compound]
viability at 500 µM ([3]; read-out: survived cells (%), Glu alone, 60 μM column): 44% | viability at 500 µM ([3]; read-out: survived cells (%), Glu alone, 100 μM column): 40%

Structure (SMILES): CCCCC/C=C\C/C=C\C/C=C\C/C=C\CCCC(=O)NCCO [Example 10, N-(2-Hydroxyethyl)-Arachidonamide]
solubility [1, 5]: > 10000 µg/mL | solubility ([1]; ethanol, read-out: solubility in ethanol): > 10000 µg/mL | viability at 60 µM ([3]; read-out: survived cells (%), treatment A, 60 μM): 95% | solubility in water ([2]; water): poorly soluble

Structure (SMILES): CC(=O)OCCNC(=O)/C=C/C(=O)NCCOC(C)=O [Example 4, N,N'-Bis(2-Acetoxyethyl)-Fumaroylamide]
solubility [1, 5]: > 10000 µg/mL | solubility in water ([2]; water): poorly soluble

More lines, main results first:

solubility [1, 5]: > 10000 µg/mL | solubility [2, 8]: > 1000 µg/mL | solubility in water ([2]; water): poorly soluble
Structure (SMILES): CCCCCCCCCCCCCCCC(=O)NCCOP(=O)(O)O [Example 5, N-Palmitoylethanolamide Phosphate]
viability at 60 µM [3, 6]: 68% | viability at 60 µM ([3]; B: compound added soon after exposure to Glu (500 μM, 5 min), 60 μM, % of control values, average of three tests, Glu alone 44, read-out: survived cells (%), treatment B, 60 μM): 99% | viability at 60 µM [3, 7]: 90%

solubility [1, 5]: > 10000 µg/mL | solubility [2, 8]: > 1000 µg/mL | solubility in water ([2]; water): poorly soluble
Structure (SMILES): O=C(O)CCC(=O)OCCNC(=O)C=CCCCCCCCCC(=O)NCCOC(=O)CCC(=O)O [Example 8, N,N'-Bis(2-Hydroxyethyl)-Dodecenediamide Disuccinate Acid]

solubility ([1]; DMSO, product in acid form, read-out: solubility in DMSO (product in acid form)): > 10000 µg/mL | solubility ([2]; water, read-out: solubility in water): > 10000 µg/mL
Structure (SMILES): O=C(/C=C/CCCCCCCCC(=O)NCCOP(=O)(O)O)NCCOP(=O)(O)O [Example 6, N,N'-Bis(2-Hydroxyethyl)-Dodecenediamide Diphosphate Disodium Salt]
